The source of these data is US10687531B2, “Urea and thiourea substituted bicycles derivatives as pesticides” (SYNGENTA PARTICIPATIONS AG, priority 2016, dated 2020).

For one data set, the system named is Plutella xylostella. In words: Example B2: Plutella xylostella (diamond back moth), artificial diet, L2 larvae. It is filed as in vivo. The following applies: 120 h, application rate 200 ppm, 5 days after infestation, read-out: effect in at least one of the two categories (mortality or growth inhibition). How it is done:
Example B2: Plutella xylostella (Diamond Back Moth)
24-well microtiter plates with artificial diet were treated with aqueous test solutions prepared from 10,000 ppm DMSO stock solutions by pipetting. After drying, the plates were infested with L2 larvae (10 to 15 per well). The samples were assessed for mortality and growth inhibition in comparison to untreated samples 5 days after infestation.

The test system of a further data set is Diabrotica balteata. In words: Example B3: Diabrotica balteata (corn root worm), maize sprouts, L2 larvae. To be noted: 96 h, application rate 200 ppm, 4 days after infestation, read-out: effect in at least one of the two categories (mortality or growth inhibition). It is filed as in vivo. Here is the method:
Example B3: Diabrotica balteata (Corn Root Worm)
Maize sprouts, placed on an agar layer in 24-well microtiter plates were treated with aqueous test solutions prepared from 10,000 ppm DMSO stock solutions by spraying. After drying, the plates were infested with L2 larvae (6 to 10 per well). The samples were assessed for mortality and growth inhibition in comparison to untreated samples 4 days after infestation.

The test system of another data set is Spodoptera littoralis. In words: Example B1: Spodoptera littoralis (Egyptian cotton leaf worm), cotton leaf disc spray, L1 larvae. It is filed as in vivo. The following applies: foliar, 72 h, application rate 200 ppm, 3 days after infestation, read-out: control (at least one of mortality, anti-feedant effect, growth inhibition). Here is the method:
Example B1: Spodoptera littoralis (Egyptian Cotton Leaf Worm)
Cotton leaf discs were placed on agar in 24-well microtiter plates and sprayed with aqueous test solutions prepared from 10,000 ppm DMSO stock solutions. After drying, the leaf discs were infested with five L1 larvae. The samples were assessed for mortality, anti-feedant effect, and growth inhibition in comparison to untreated samples 3 days after infestation. Control of Spodoptera littoralis by a test sample is when at least one of mortality, anti-feedant effect, and growth inhibition is higher than the untreated sample.

Data set [1] has as its system Frankliniella occidentalis. In words: Example B6: Frankliniella occidentalis (western flower thrips), sunflower leaf disc spray. The following applies: foliar, 168 h, application rate 200 ppm, 7 days after infestation, mixed ages. In kind it is in vivo. Here is the method:
Example B6: Frankliniella occidentalis (Western Flower Thrips)
Sunflower leaf discs were placed on agar in 24-well microtiter plates and sprayed with aqueous test solutions prepared from 10,000 DMSO stock solutions. After drying the leaf discs were infested with a Frankliniella population of mixed ages. The samples were assessed for mortality 7 days after infestation.

The subject of the next data set is Euschistus heros. In words: Example B4: Euschistus heros, soybean leaf spray, N-2 nymphs. The following applies: 120 h, application rate 200 ppm, 5 days after infestation, read-out: effect in at least one of the two categories (mortality or growth inhibition). In kind it is in vivo. How it is done: Example B4: Euschistus heros
Soybean leaf on agar in 24-well microtiter plates were sprayed with aqueous test solutions prepared from 10,000 ppm DMSO stock solutions. After drying the leaf were infested with N-2 nymphs. The samples were assessed for growth inhibition in comparison to untreated samples 5 days after infestation.

A further data set concerns Thrips tabaci. In words: Example B5: Thrips tabaci (onion thrips), sunflower leaf disc spray. It is filed as in vivo. To be noted: foliar, 144 h, application rate 200 ppm, 6 days after infestation, mixed ages. How it is done:
Example B5: Thrips tabaci (Onion Thrips)
Sunflower leaf discs were placed on agar in 24-well microtiter plates and sprayed with aqueous test solutions prepared from 10,000 ppm DMSO stock solutions. After drying the leaf discs were infested with a thrips population of mixed ages. The samples were assessed for mortality 6 days after infestation.

Turning to `CC(C)c1ccccc1NC(=O)Nc1ccc2cc(-c3ncn(-c4ccc(OC(F)(F)F)cc4)n3)ccc2n1` [Compound P1.3, 1-(2-isopropylphenyl)-3-[6-[1-[4-(trifluoromethoxy)phenyl]-1,2,4-triazol-3-yl]-2-quinolyl]urea], the percent control (mortality or growth inhibition) at 200 ppm in the data set with Plutella xylostella is no less than 80%. Besides, in the data set with Diabrotica balteata, the percent effect (mortality or growth inhibition) at 200 ppm was no less than 80%.

In the case of `CC(C)c1ccccc1NC(=S)Nc1ccc2cc(-c3ncn(-c4ccc(OC(F)(F)F)cc4)n3)ccc2n1` [Compound P1.4, 1-(2-isopropylphenyl)-3-[6-[1-[4-(trifluoromethoxy)phenyl]-1,2,4-triazol-3-yl]-2-quinolyl]thiourea], in the data set with Plutella xylostella, the percent control (mortality or growth inhibition) at 200 ppm was no less than 80%. In the data set with Spodoptera littoralis, the control at 200 ppm was no less than 80%. The percent effect (mortality or growth inhibition) at 200 ppm with Diabrotica balteata is no less than 80%.

For orientation: mortality means the percentage killed. The low end stands for more survivors, the high end for fewer survivors. As to `CC(C)c1ccccc1N1CS/C1=N\c1ccc2cc(-c3ncn(-c4ccc(OC(F)(F)F)cc4)n3)ccc2n1` [Compound P2.1, 3-(2-isopropylphenyl)-N-[6-[1-[4-(trifluoromethoxy)phenyl]-1,2,4-triazol-3-yl]-2-quinolyl]-1,3-thiazetidin-2-imine], in the data set with Plutella xylostella, the percent control (mortality or growth inhibition) at 200 ppm was no less than 80%. The control at 200 ppm in the data set on Spodoptera littoralis is no less than 80%. Also, in data set [1], the mortality at 200 ppm is no less than 80%. The percent effect (mortality or growth inhibition) at 200 ppm in the data set with Diabrotica balteata was no less than 80%.

Consider `Cc1cs/c(=N\c2ccc3cc(-c4ncn(-c5ccc(OC(F)(F)F)cc5)n4)ccc3n2)n1-c1ccccc1C(C)C` [Compound P2.2, 3-(2-isopropylphenyl)-4-methyl-N-[6-[1-[4-(trifluoromethoxy)phenyl]-1,2,4-triazol-3-yl]-2-quinolyl]thiazol-2-imine], for which, in the data set on Plutella xylostella, the percent control (mortality or growth inhibition) at 200 ppm was no less than 80%. Further, the control at 200 ppm with Spodoptera littoralis was no less than 80%. In addition, the mortality at 200 ppm in data set [1] is no less than 80%. In addition, the percent effect (mortality or growth inhibition) at 200 ppm in the data set with Diabrotica balteata was no less than 80%.

With `CC(C)c1ccccc1N1C(=O)CS/C1=N\c1ccc2cc(-c3ncn(-c4ccc(OC(F)(F)F)cc4)n3)ccc2n1` [Compound P2.3, (2Z)-3-(2-isopropylphenyl)-2-[[6-[1-[4-(trifluoromethoxy)phenyl]-1,2,4-triazol-3-yl]-2-quinolyl]imino]thiazolidin-4-one], in the data set with Plutella xylostella, the percent control (mortality or growth inhibition) at 200 ppm is no less than 80%. The control at 200 ppm in the data set with Spodoptera littoralis is no less than 80%. The same compound registered a mortality at 200 ppm in data set [1] of no less than 80%. The percent effect (mortality or growth inhibition) at 200 ppm in the data set with Diabrotica balteata is no less than 80%.

Consider `CC(C)c1ccccc1/N=C1/SCC(=O)N1c1ccc2cc(-c3ncn(-c4ccc(OC(F)(F)F)cc4)n3)ccc2n1` [Compound P2.4, (2E)-2-(2-isopropylphenyl)imino-3-[6-[1-[4-(trifluoromethoxy)phenyl]-1,2,4-triazol-3-yl]-2-quinolyl]thiazolidin-4-one], for which the percent effect (mortality or growth inhibition) at 200 ppm with Euschistus heros and in the data set on Diabrotica balteata was no less than 80% each time. In addition, the percent control (mortality or growth inhibition) at 200 ppm in the data set with Plutella xylostella was no less than 80%. The mortality at 200 ppm (with Thrips tabaci; in data set [1]) was no less than 80% throughout. The control at 200 ppm in the data set with Spodoptera littoralis was no less than 80%.

What is called melting point is the temperature, or range, at which the solid turns liquid. `Cc1cccc(C)c1NC(=O)Nc1ncc2cc(-c3ncn(-c4ccc(OC(F)(F)F)cc4)n3)ccc2n1` [Compound P2.6, 1-(2,6-dimethylphenyl)-3-[6-[1-[4-(trifluoromethoxy)phenyl]-1,2,4-triazol-3-yl]quinazolin-2-yl]urea] had a melting point of 247 to 249 °C.

Regarding `Cc1cccc(C)c1N1/C(=N/c2ncc3cc(-c4ncn(-c5ccc(OC(F)(F)F)cc5)n4)ccc3n2)SCC1(C)O` (stereo not shown) [Compound P2.7, (2Z)-3-(2,6-dimethylphenyl)-4-methyl-2-[6-[1-[4-(trifluoromethoxy)phenyl]-1,2,4-triazol-3-yl]quinazolin-2-yl]imino-thiazolidin-4-ol], the percent effect (mortality or growth inhibition) at 200 ppm in the data set on Euschistus heros and with Diabrotica balteata was no less than 80% throughout.

As to `Cc1cccc(C)c1N1CS/C1=N\c1ncc2cc(-c3ncn(-c4ccc(OC(F)(F)F)cc4)n3)ccc2n1` [Compound P2.8, 3-(2,6-dimethylphenyl)-N-[6-[1-[4-(trifluoromethoxy)phenyl]-1,2,4-triazol-3-yl]quinazolin-2-yl]-1,3-thiazetidin-2-imine], the melting point fell in the range of 227 to 229 °C.

As for `Cc1cccc(C)c1N1C(=O)CS/C1=N\c1ncc2cc(-c3ncn(-c4ccc(OC(F)(F)F)cc4)n3)ccc2n1` [Compound P2.9, (2Z)-3-(2,6-dimethylphenyl)-2-[6-[1-[4-(trifluoromethoxy)phenyl]-1,2,4-triazol-3-yl]quinazolin-2-yl]imino-thiazolidin-4-one], the percent control (mortality or growth inhibition) at 200 ppm with Plutella xylostella is no less than 80%. For the same compound, in the data set on Spodoptera littoralis, the control at 200 ppm was no less than 80%. For the same compound, the percent effect (mortality or growth inhibition) at 200 ppm with Diabrotica balteata was no less than 80%.

Regarding `Cc1cccc(C)c1NC(=S)Nc1cnc2cc(-c3ncn(-c4ccc(OC(F)(F)F)cc4)n3)ccc2n1` [Compound P2.11, 1-(2,6-dimethylphenyl)-3-[6-[1-[4-(trifluoromethoxy)phenyl]-1,2,4-triazol-3-yl]quinoxalin-2-yl]thiourea], in the data set with Plutella xylostella, the percent control (mortality or growth inhibition) at 200 ppm is no less than 80%. Also, the control at 200 ppm in the data set on Spodoptera littoralis was no less than 80%. Also, the percent effect (mortality or growth inhibition) at 200 ppm with Diabrotica balteata is no less than 80%.

On to `Cc1cccc(C)c1N1CS/C1=N\c1cnc2cc(-c3ncn(-c4ccc(OC(F)(F)F)cc4)n3)ccc2n1` [Compound P2.12, 3-(2,6-dimethylphenyl)-N-[6-[1-[4-(trifluoromethoxy)phenyl]-1,2,4-triazol-3-yl]quinoxalin-2-yl]-1,3-thiazetidin-2-imine], for which the control at 200 ppm in the data set on Spodoptera littoralis was no less than 80%. Moreover, in data set [1], the mortality at 200 ppm is no less than 80%.

In the case of `Cc1cccc(C)c1NC(=S)Nc1ccc2cc(-c3ncn(-c4ccc(OC(F)(F)F)cc4)n3)ccc2c1` [Compound P2.13, 1-(2,6-dimethylphenyl)-3-[6-[1-[4-(trifluoromethoxy)phenyl]-1,2,4-triazol-3-yl]-2-naphthyl]thiourea], in the data set on Plutella xylostella, the percent control (mortality or growth inhibition) at 200 ppm was no less than 80%. Also, the control at 200 ppm in the data set with Spodoptera littoralis was no less than 80%. Moreover, in the data set with Diabrotica balteata, the percent effect (mortality or growth inhibition) at 200 ppm is no less than 80%.

On to `Cc1cccc(C)c1N1CS/C1=N\c1nc2ccc(-c3ncn(-c4ccc(OC(F)(F)F)cc4)n3)cc2s1` [Compound P2.14, 3-(2,6-dimethylphenyl)-N-[6-[1-[4-(trifluoromethoxy)phenyl]-1,2,4-triazol-3-yl]-1,3-benzothiazol-2-yl]-1,3-thiazetidin-2-imine], for which, in the data set with Plutella xylostella, the percent control (mortality or growth inhibition) at 200 ppm is no less than 80%. In the data set on Thrips tabaci, this compound had a mortality at 200 ppm of no less than 80%. The control at 200 ppm in the data set on Spodoptera littoralis is no less than 80%.

The compound `Cc1cccc(C)c1/N=C1/SCN1c1nc2ccc(-c3ncn(-c4ccc(OC(F)(F)F)cc4)n3)cc2s1` [Compound P2.15, N-(2,6-dimethylphenyl)-3-[6-[1-[4-(trifluoromethoxy)phenyl]-1,2,4-triazol-3-yl]-1,3-benzothiazol-2-yl]-1,3-thiazetidin-2-imine] came in with a melting point greater than 250 °C.

On to `Cc1cccc(C)c1NC(=S)Nc1nc2ccc(-c3ncn(-c4ccc(OC(F)(F)F)cc4)n3)cc2s1` [Compound P2.17, 1-(2,6-dimethylphenyl)-3-[6-[1-[4-(trifluoromethoxy)phenyl]-1,2,4-triazol-3-yl]-1,3-benzothiazol-2-yl]thiourea], for which the percent effect (mortality or growth inhibition) at 200 ppm in the data set with Euschistus heros and in the data set on Diabrotica balteata was no less than 80% each time. Moreover, the percent control (mortality or growth inhibition) at 200 ppm in the data set on Plutella xylostella is no less than 80%. In the data set on Spodoptera littoralis, the control at 200 ppm was no less than 80%.
